In patent US20240148821A1, “PHARMACEUTICAL USE OF CYCLIC PEPTIDE COMPOUND” (CHUGAI SEIYAKU KABUSHIKI KAISHA, priority 2021, published 2024):
Blank lines part the entries; values can stand above or below the molecule they belong to. Bridge positions count the residues as written; N and C are the ends. Square brackets hold non-standard residues; d marks the D form. Peptide text beside a SMILES is read from it. * marks the point of attachment. hPhe(3-Cl-4-CF3) = N[C@@H](CCc1ccc(C(F)(F)F)c(Cl)c1)C(=O)O; NMeCha = CN[C@@H](CC1CCCCC1)C(=O)O; NMeChg = CN[C@H](C(=O)O)C1CCCCC1; NMeD = CN[C@@H](CC(=O)O)C(=O)O; NMeL = CN[C@@H](CC(C)C)C(=O)O; Piperidide = C1CCN(*)CC1; Ac5c = NC1(C(=O)O)CCCC1; Sar = CNCC(=O)O

Legend:
[1] = test system: various cancer cell lines (Ras mutation or amplification); assay: Measurement of cell growth inhibitory activity against various cancer cell lines (CellTiter-Glo); assay type: cell-based, human
Description: Various cancer cell lines used were purchased from commercial suppliers. […] The cell suspension and culture medium supplemented with serum were dispensed to a plate containing the test compounds at 40 μL (384 well plate) or 200 μL (96 well plate) per well and incubated in a carbon dioxide gas incubator. […] Six days or seven days after the start of cultivation, 20 μL of CellTiter-Glo (Promega) was added to each well and fluorescence was measured.

[2] = biological target: protein-protein interaction between Kras and SOS1 (biotin-tagged human Kras loaded with GDP, His-tagged human SOS1) (Homo sapiens (Human), UniProt P01116, G12D); assay: Protein-protein interaction inhibition between Kras and SOS1 (KrasG12D-SOS PPI) using AlphaScreen; assay type: biochemical; conditions: AlphaScreen; biotin-tagged human Kras loaded with GDP, His-tagged human SOS1; read-out: KRAS G12D-SOS PPI IC50;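 also: kras produced in E. coli, Ni-coupled donor beads and streptavidin acceptor beads, excitation 680 nm with emission detected at 520–620 nm via singlet oxygen transfer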
[3] = test system: A549 (NSCLC); assay: In vivo antitumor activity, mouse xenograft model, A549; conditions: 10 days
Description: Tumor growth inhibition rate (TGI %)=(1−TV/CV)×100

[4] = biological target: human KRAS G12V (human) (UniProt P01116); assay: cell-based or functional assay
[5] = biological target: human KRAS, gene copy number amplified (human) (UniProt P01116); assay: cell-based or functional assay
[6] = biological target: human NRAS G13D (human) (UniProt P01111); assay: cell-based or functional assay
[7] = biological target: human KRAS G12D (human) (UniProt P01116); assay: cell-based or functional assay
[8] = biological target: human KRAS G12S (human) (UniProt P01116); assay: cell-based or functional assay
[9] = biological target: human KRAS G12C (human) (UniProt P01116); assay: cell-based or functional assay

Molecule: CC[C@H](C)[C@@H]1NC(=O)[C@H](CC(C)C)N(C)C(=O)C[C@@H](C(=O)N2CCCCC2)N(C)C(=O)[C@H](C2CCCCC2)N(C)C(=O)C2(CCCC2)NC(=O)[C@@H]2CCCN2C(=O)[C@H](CCc2ccc(C(F)(F)F)c(Cl)c2)NC(=O)CN(C)C(=O)[C@H](CC2CCCCC2)N(C)C(=O)CN(C)C(=O)CN(C)C1=O [Compound 558, (3S,9S,18S,21S,25S,28S,34S)-3-[2-[3-chloro-4-(trifluoromethyl)phenyl]ethyl]-28-cyclohexyl-9-(cyclohexylmethyl)-21-isobutyl-7,10,13,16,22,26,29-heptamethyl-18-[(1S)-1-methylpropyl]-25-(piperidine-1-carbonyl)spiro[1,4,7,10,13,16,19,22,26,29,32-undecazabicyclo[32.3.0]heptatriacontane-31,1′-cyclopentane]-2,5,8,11,14,17,20,23,27,30,33-undecone] ([NMeL]I[Sar][Sar][NMeCha][Sar][hPhe(3-Cl-4-CF3)]P[Ac5c][NMeChg][NMeD]-Piperidide; lactam N-11)
IC50 ([1]; A4/Fuk, Non-Hodgkin lymphoma, KRAS Amp): 5.83 nM
IC50 ([1]; A549, NSCLC, KRAS G12S): 7.98 nM
IC50 ([1]; KURAMOCHI, Ovary, KRAS Amp): 23.4 nM
IC50 ([1]; LS 180, Colon, KRAS G12D): 22.6 nM
IC50 ([1]; MIA PaCa-2, Pancreas, KRAS G12C): 18.7 nM
IC50 ([1]; NCI-H441, NSCLC, KRAS G12V): 31.6 nM
IC50 ([1]; NCI-H929, Myeloma, NRAS G13D): 55.7 nM
IC50 ([1]; SNU-1, Stomach, KRAS G12D): 29.8 nM
IC50 ([1]; SW480, Colon, KRAS G12V): 17.5 nM
IC50 [2]: 1.8 nM
TGI (%) ([3]; 10 mg/kg once daily): 46%
TGI (%) ([3]; 15 mg/kg once daily): 57%
TGI (%) ([3]; 30 mg/kg once daily): 106%

IC50, cell growth inhibition (CellTiter-Glo), NCI-H441 (NSCLC) [4]: 31.6 nM
IC50, cell growth inhibition (CellTiter-Glo), SW480 (Colon) [4]: 17.5 nM
IC50, cell growth inhibition (CellTiter-Glo), A4/Fuk (Non-Hodgkin lymphoma), KRAS Amp [5]: 5.83 nM
IC50, cell growth inhibition (CellTiter-Glo), KURAMOCHI (Ovary), KRAS Amp [5]: 23.4 nM
IC50, cell growth inhibition (CellTiter-Glo), NCI-H929 (Myeloma) [6]: 55.7 nM
IC50, cell growth inhibition (CellTiter-Glo), LS 180 (Colon) [7]: 22.6 nM
IC50, cell growth inhibition (CellTiter-Glo), SNU-1 (Stomach) [7]: 29.8 nM
IC50, cell growth inhibition (CellTiter-Glo), A549 (NSCLC) [8]: 7.98 nM
IC50, cell growth inhibition (CellTiter-Glo), MIA PaCa-2 (Pancreas) [9]: 18.7 nM
B1: Compound 558 (peptide)
peptide: [NMeL]I[Sar][Sar][NMeCha][Sar][hPhe(3-Cl-4-CF3)]P[Ac5c][NMeChg]D-Piperidide
modifications: lactam N-11; not fully specified (residue 11)
